Measured values taken from patent US11466044B2 (WAYNE STATE UNIVERSITY, priority 2017, dated 2022).
Converted amounts (≈) assume the structure as drawn. “Also recorded” adds a separate entry of the source. Structures can show the parent of a compound that is named as a salt. Where two headings read alike, the source gives them in different places.

Tests used:
[1] = system: A1555G mutant mitochondrial ribosome (human chimeric); experiment: in-vitro translation assay, human chimeric ribosomes, A1555G mutant mitochondrial decoding site; format: biochemical; conditions: Table 3 (Example 3)
From the text: (§1) The antiribosomal activity of these compounds was investigated with cell-free translation assays using both wild type bacterial ribosomes and hybrid ribosomes carrying eukaryotic decoding A sites enabling the prediction of selectivity.

[2] = system: Acinetobacter baumannii pittii AG225; experiment: MIC by broth microdilution, Acinetobacter baumannii; format: cell-based; conditions: strain AG225 Acinetobacter baumannii pittii
MRSA = experiment: MIC by broth microdilution, MRSA isolates; format: cell-based; conditions: Table 1 (Example 3); for MIC: Staphylococcus aureus, MRSA
[3] = system: Klebsiella pneumonia AG215; experiment: MIC by broth microdilution, Klebsiella pneumonia; format: cell-based; conditions: strain AG215 Klebsiella pneumonia; for MIC: Klebsiella pneumoniae, read-out: MIC AG215 K. pneumon
[4] = system: mitochondrial ribosome (human chimeric); format: biochemical; conditions: for Selectivity for Binding to the Bacterial Ribosome over the Mitochondrial Ribosome: Table 3 (Example 3); for IC50: mitochondrial, Table 4 (Example 3), read-out: IC50 Mit
From the text: as §1

[5] = system: cytosolic ribosome (human chimeric); format: biochemical; conditions: for Selectivity for Binding to the Bacterial Ribosome over the Cytosolic Ribosome: Table 3 (Example 3); for IC50: cytosolic, Table 4 (Example 3), read-out: IC50 Cyt
From the text: as §1

[6] = system: E coli carrying specific resistance determinants; experiment: MIC by broth microdilution, E coli carrying specific resistance determinants; format: cell-based; conditions: for MIC E. coli AG106 AAC(2′)-Ia / MIC E. coli pGB2armA armA: Table 5 (Example 3); for MIC E coli AG106 AAC(2′): Table 2 (Example 3); for MIC: Escherichia coli
P aeruginosa = experiment: MIC by broth microdilution, P aeruginosa isolates; format: cell-based, Pseudomonas aeruginosa; conditions: strain AG220 Pseudomonas aeruginosa ATCC27853; for MIC: read-out: MIC AG220 P. aerugin
E coli wild type = experiment: MIC by broth microdilution, wild type E coli; format: cell-based; conditions: for antibacterial activity, in words: MRSA and E coli, compared with the parent compound; for MIC AG212 E. coli: strain AG212 E. coli (ATCC25922); for MIC: Escherichia coli
M. smegmatis SZ380 = experiment: MIC by broth microdilution, M. smegmatis; conditions: for MIC SZ380 M. smegmatis: strain SZ380 Mycobacterium smegmatis; for MIC: Mycolicibacterium smegmatis
[7] = system: Enterobacter cloacae AG290; experiment: MIC by broth microdilution, Enterobacter cloacae; format: cell-based; conditions: strain AG290 Enterobacter cloacae; read-out: MIC AG290 E. cloacae
M. abscessus = experiment: MIC by broth microdilution, M. abscessus; format: cell-based; conditions: Mycobacteroides abscessus
[8] = system: wild type bacterial ribosomes; experiment: in-vitro translation assay, bacterial ribosomes; format: biochemical; conditions: for IC50: bacterial ribosome, Table 4 (Example 3), read-out: IC50 Bac; for selectivity for the bacterial ribosome over mitochondrial (wild type, A1555G mutant) and cytosolic ribosomes, in words: compared with the parent compound
From the text: as §1

[9] = AG006 Wild type, Table 2 (Example 3)
[10] = AG104 Wild type, Table 2 (Example 3)
[11] = clinical isolate AG001, Table 1 (Example 3)
[12] = clinical isolate AG003, Table 1 (Example 3)
[13] = clinical isolate AG055, Table 1 (Example 3)
[14] = ATCC19977, ATCC 19977 WT, Table 5 (Example 3), read-out: MIC M. abscessus ATCC 19977 WT
[15] = read-out: MIC M. abscessus engineered Δeis2
[16] = ATCC, Table 4 (Example 3), read-out: MIC M. abscessus ATCC
[17] = Clin. Isol., Table 4 (Example 3), read-out: MIC M. abscessus Clin. Isol.
[18] = clinical isolate AG038, read-out: MIC MRSA AG038
[19] = clinical isolate AG039, read-out: MIC MRSA AG039
[20] = clinical isolate AG042, read-out: MIC MRSA AG042
[21] = read-out: MIC E coli AG106 AAC(2′)
[22] = read-out: MIC E. coli AAC(2′) AG106
[23] = read-out: MIC E. coli AAC(2′) pH434
[24] = read-out: MIC E. coli AG106 AAC(2′)-Ia
[25] = read-out: MIC E. coli pGB2armA armA
[26] = read-out: MIC E. coli pH434 AAC(2′)-Ib
[27] = AG104 Wild type, Table 2 (Example 3), read-out: MIC E coli AG104 Wild type
[28] = ATCC25922, strain AG212 E. coli (ATCC25922), read-out: MIC AG212 E. coli
[29] = WT, Table 4 (Example 3), read-out: MIC E. coli WT
[30] = WT, Table 5 (Example 3), read-out: MIC E. coli WT
[31] = clinical isolate AG001, Table 1 (Example 3), read-out: MIC E coli AG001
[32] = clinical isolate AG003, Table 1 (Example 3), read-out: MIC E coli AG003
[33] = clinical isolate AG055, Table 1 (Example 3), read-out: MIC E coli AG055
[34] = SZ380, read-out: MIC M. smegmatis SZ380 WT, SZ380 WT, Table 5 (Example 3)
[35] = SZ380, read-out: MIC SZ380 M. smegmatis, strain SZ380 Mycobacterium smegmatis

## CC(=O)O.NCC(=O)NC1C(OC2C(N)CC(N)C(O)C2OC2OC(CO)C(OC3OC(CN)C(O)C(O)C3N)C2O)OC(CN)C(O)C1O (stereo not drawn) [Compound 175, 2′-N-(2-Aminoacetyl)-neomycin acetate salt]
[1]
  Selectivity for Binding to the Bacterial Ribosome over the Mutant Mitochondrial Ribosome: 153
[2]
  MIC AG225 A. baumannii: 8 to 16 mg/L
MRSA; clinical isolate AG038
  MIC MRSA AG038: 4 mg/L
MRSA; clinical isolate AG039
  MIC MRSA AG039: >32 mg/L
MRSA; clinical isolate AG042
  MIC MRSA AG042: >32 mg/L
[3]
  MIC AG215 K. pneumon: 8 mg/L
[4]
  Selectivity for Binding to the Bacterial Ribosome over the Mitochondrial Ribosome: 67
[5]
  Selectivity for Binding to the Bacterial Ribosome over the Cytosolic Ribosome: 155
[6]
  MIC E. coli AG106 AAC(2′)-Ia: 16 to 32 mg/L
  MIC E coli AG106 AAC(2′): 16 to 32 mg/L
  MIC E. coli pGB2armA armA: 16 μg/ml
P aeruginosa
  MIC AG220 P. aerugin: >32 mg/L
E coli wild type; [9]
  MIC E coli AG006 Wild type: 8 mg/L
E coli wild type; [10]
  MIC E coli AG104 Wild type: 16 mg/L
E coli wild type
  antibacterial activity, in words: very substantial loss of activity
  MIC AG212 E. coli: 16 mg/L
E coli wild type; WT, Table 5 (Example 3)
  MIC E. coli WT: 8 to 16 mg/L
E coli wild type; [11]
  MIC E coli AG001: 16 mg/L
E coli wild type; [12]
  MIC E coli AG003: 32 mg/L
E coli wild type; [13]
  MIC E coli AG055: 16 mg/L
M. smegmatis SZ380; Table 5 (Example 3)
  MIC M. smegmatis SZ380 WT: 0.25 mg/L
M. smegmatis SZ380
  MIC SZ380 M. smegmatis: 0.25 mg/L

## CC(=O)NC1C(OC2C(N)CC(N)C(O)C2OC2OC(CO)C(OC3OC(CN)C(O)C(O)C3N)C2O)OC(CN)C(O)C1O (stereo not drawn) [Compound 183]
[1]
  Selectivity for Binding to the Bacterial Ribosome over the Mutant Mitochondrial Ribosome: 5.2
[2]
  MIC AG225 A. baumannii: >32 mg/L
MRSA; clinical isolate AG038
  MIC MRSA AG038: >32 mg/L
MRSA; clinical isolate AG039
  MIC MRSA AG039: >32 mg/L
MRSA; clinical isolate AG042
  MIC MRSA AG042: >32 mg/L
[3]
  MIC AG215 K. pneumon: >32 mg/L
[4]
  Selectivity for Binding to the Bacterial Ribosome over the Mitochondrial Ribosome: 18
[5]
  Selectivity for Binding to the Bacterial Ribosome over the Cytosolic Ribosome: 28
[6]
  MIC E. coli AG106 AAC(2′)-Ia: 128 mg/L (≈ 195 µM)
  MIC E coli AG106 AAC(2′): 128 mg/L (≈ 195 µM)
  MIC E. coli pGB2armA armA: 128-256 μg/ml
P aeruginosa
  MIC AG220 P. aerugin: >32 mg/L
E coli wild type; [9]
  MIC E coli AG006 Wild type: 64 mg/L (≈ 97.5 µM)
E coli wild type; [10]
  MIC E coli AG104 Wild type: 128 mg/L (≈ 195 µM)
E coli wild type
  antibacterial activity, in words: very substantial loss of activity; also recorded: very significantly reduced activity
  MIC AG212 E. coli: >32 mg/L
E coli wild type; WT, Table 5 (Example 3)
  MIC E. coli WT: 128 mg/L (≈ 195 µM)
E coli wild type; [11]
  MIC E coli AG001: >32 mg/L
E coli wild type; [12]
  MIC E coli AG003: >32 mg/L
E coli wild type; [13]
  MIC E coli AG055: >32 mg/L
M. smegmatis SZ380; Table 5 (Example 3)
  MIC M. smegmatis SZ380 WT: 8 mg/L (≈ 12.2 µM)
M. smegmatis SZ380
  MIC SZ380 M. smegmatis: 8 mg/L (≈ 12.2 µM)

## NCC1OC(OC2C(CO)OC(OC3C(O)C(N)CC(N)C3OC3OC(CN)C(O)C(O)C3NC=O)C2O)C(N)C(O)C1O (stereo not drawn) [Compound 182, 2′-N-Formamido-neomycin]
[7]
  MIC: 2 mg/L (≈ 3.11 µM)
M. abscessus; [14]
  MIC: 16 mg/L (≈ 24.9 µM)
M. abscessus; [15]
  MIC: 0.5 mg/L (≈ 0.778 µM)
M. abscessus; [16]
  MIC: 16 mg/L (≈ 24.9 µM)
M. abscessus; [17]
  MIC: 32 mg/L (≈ 49.8 µM)
[1]
  Selectivity for Binding to the Bacterial Ribosome over the Mutant Mitochondrial Ribosome: 108
[2]
  MIC: 2 mg/L (≈ 3.11 µM)
MRSA; [18]
  MIC: 2 to 4 mg/L (≈ 3.11 to 6.22 µM)
MRSA; [19]
  MIC: > 32 mg/L
MRSA; [20]
  MIC: > 32 mg/L
[3]
  MIC: 1 to 2 mg/L (≈ 1.56 to 3.11 µM)
[4]
  Selectivity for Binding to the Bacterial Ribosome over the Mitochondrial Ribosome: 463
  IC50: 54 µM
[5]
  Selectivity for Binding to the Bacterial Ribosome over the Cytosolic Ribosome: 1093
  IC50: 127 µM
[6]; AAC(2′)
  effect of the AAC(2′) resistance determinant, in words: not susceptible to deactivation by AAC(2′)
[6]; [21]
  MIC: 2 mg/L (≈ 3.11 µM)
[6]; [22]
  MIC: 2 mg/L (≈ 3.11 µM)
[6]; [23]
  MIC: 8 to 16 mg/L (≈ 12.4 to 24.9 µM)
[6]; [24]
  MIC: 2 mg/L (≈ 3.11 µM)
[6]; [25]
  MIC: 8 mg/L (≈ 12.4 µM)
[6]; [26]
  MIC: 8 to 16 mg/L (≈ 12.4 to 24.9 µM)
[8]
  IC50: 0.12 µM
  selectivity for the bacterial ribosome over mitochondrial (wild type, A1555G mutant) and cytosolic ribosomes, in words: increased selectivity for the bacterial ribosome
P aeruginosa
  MIC: > 64 mg/L
E coli wild type; AG006 Wild type, Table 2 (Example 3), read-out: MIC E coli AG006 Wild type
  MIC: 2 mg/L (≈ 3.11 µM)
E coli wild type; [27]
  MIC: 2 to 4 mg/L (≈ 3.11 to 6.22 µM)
E coli wild type; [28]
  MIC: 4 mg/L (≈ 6.22 µM)
E coli wild type; [29]
  MIC: 2 mg/L (≈ 3.11 µM)
E coli wild type; [30]
  MIC: 2 mg/L (≈ 3.11 µM)
E coli wild type; [31]
  MIC: 4 to 8 mg/L (≈ 6.22 to 12.4 µM)
E coli wild type; [32]
  MIC: 4 to 8 mg/L (≈ 6.22 to 12.4 µM)
E coli wild type; [33]
  MIC: 2 mg/L (≈ 3.11 µM)
E coli wild type
  antibacterial activity, in words: retains most of the activity of the parent
M. smegmatis SZ380; [34]
  MIC: 1 mg/L (≈ 1.56 µM)
M. smegmatis SZ380; [35]
  MIC: 1 mg/L (≈ 1.56 µM)

## CNC1C(OC2C(N)CC(N)C(O)C2OC2OC(CO)C(OC3OC(CN)C(O)C(O)C3N)C2O)OC(CO)C(O)C1O (stereo not drawn) [Compound 115, 2′-N-Methyl-paromomycin acetate salt]
[7]
  MIC: 2 mg/L
M. abscessus; [14]
  MIC: 16 mg/L
M. abscessus; [15]
  MIC: 0.5 mg/L
M. abscessus; [16]
  MIC: 16 mg/L
M. abscessus; [17]
  MIC: 32 mg/L
[1]
  Selectivity for Binding to the Bacterial Ribosome over the Mutant Mitochondrial Ribosome: 1134
[2]
  MIC: 4 mg/L
MRSA; [18]
  MIC: 8 mg/L
MRSA; [19]
  MIC: > 128 mg/L
MRSA; [20]
  MIC: > 128 mg/L
MRSA; clinical isolate AG044, read-out: MIC MRSA AG044
  MIC: 4 mg/L
[3]
  MIC: 2 mg/L
[4]
  Selectivity for Binding to the Bacterial Ribosome over the Mitochondrial Ribosome: 3151
  IC50: 95 µM
[5]
  Selectivity for Binding to the Bacterial Ribosome over the Cytosolic Ribosome: 1264
  IC50: 38 µM
[6]; [21]
  MIC: 4 to 8 mg/L
[6]; [22]
  MIC: 4 mg/L
[6]; [23]
  MIC: 8 mg/L
[6]; [24]
  MIC: 4 mg/L
[6]; [25]
  MIC: 4 to 8 mg/L
[6]; [26]
  MIC: 8 mg/L
[8]
  IC50: 0.03 µM
  selectivity for the bacterial ribosome over mitochondrial (wild type, A1555G mutant) and cytosolic ribosomes, in words: increased selectivity for the bacterial ribosome
P aeruginosa
  MIC: > 64 mg/L
E coli wild type; [27]
  MIC: 2 to 4 mg/L
E coli wild type; [28]
  MIC: 4 mg/L
E coli wild type; [29]
  MIC: 2 to 4 mg/L
E coli wild type; [30]
  MIC: 2 to 4 mg/L
E coli wild type; [31]
  MIC: 16 mg/L
E coli wild type; [32]
  MIC: 16 mg/L
E coli wild type; [33]
  MIC: 16 mg/L
M. smegmatis SZ380; [34]
  MIC: 4 to 8 mg/L
M. smegmatis SZ380; [35]
  MIC: 4 to 8 mg/L
